Among the data in the NIST ThermoML archive (doi:10.1016/j.jct.2006.07.022) are refractive index and mass density values, retold here.

The structures appear in SMILES notation. ± gives the expanded uncertainty stated by the source.

Data set [1] is described as follows: refractive index (Na D-line) (dimensionless). Conditions: 298.15 K; 101.33 kPa; Liquid; Standard Abbe refractometry.
Data set [2] can be described thus: xn = mol fraction of the nth substance listed. To be noted: 101 kPa, Liquid.

As usually defined, the refractive index is the speed of light in vacuum divided by its phase velocity in the sample. The mass density is mass per unit of volume.

On to `CN(C)C=O` [dimethylformamide], for which the refractive index in data set [1] is 1.4307 ± 0.0007.

Turning to `c1ccccc1` [benzene], in data set [1], the refractive index was 1.5009 ± 0.0007.

`CCc1ccccc1` [ethylbenzene]: the refractive index in data set [1] is 1.4962 ± 0.0008.

Consider `Cc1ccccc1` [toluene], for which the refractive index in data set [1] is listed as 1.4965 ± 0.0008.

Consider `CN(C)C=O` [dimethylformamide] + CCc1ccccc1, for which the mass density was found to be 948.58 ± 0.25 kg/m3 in data set [2] (293.15 K, x2 = 0); 939.46 ± 0.26 kg/m3 in data set [2] (303.15 K, x2 = 0); 930.12 ± 0.28 kg/m3 in data set [2] (313.15 K, x2 = 0); 920.55 ± 0.29 kg/m3 in data set [2] (323.15 K, x2 = 0); 910.75 ± 0.3 kg/m3 in data set [2] (333.15 K, x2 = 0); 900.73 ± 0.32 kg/m3 in data set [2] (343.15 K, x2 = 0). Moreover, in data set [2] (353.15 K, x2 = 0), the mass density was 890.48 ± 0.34 kg/m3.

For the compound `Cc1ccccc1` [toluene] + CN(C)C=O, the mass density is reported as 866.8 ± 0.94 kg/m3 in data set [2] (293.15 K, x1 = 1); 857.53 ± 0.94 kg/m3 in data set [2] (303.15 K, x1 = 1); 848.23 ± 0.94 kg/m3 in data set [2] (313.15 K, x1 = 1); 838.91 ± 0.94 kg/m3 in data set [2] (323.15 K, x1 = 1); 829.55 ± 0.95 kg/m3 in data set [2] (333.15 K, x1 = 1); 820.17 ± 0.95 kg/m3 in data set [2] (343.15 K, x1 = 1). Besides, in data set [2] (353.15 K, x1 = 1), the mass density is listed as 810.77 ± 0.95 kg/m3.

`c1ccccc1` [benzene] + CN(C)C=O: the mass density in data set [2] (293.15 K, x1 = 1) was 878.96 ± 0.33 kg/m3; in data set [2] (303.15 K, x1 = 1), 868.21 ± 0.34 kg/m3; in data set [2] (313.15 K, x1 = 1), 857.4 ± 0.36 kg/m3; in data set [2] (323.15 K, x1 = 1), 846.55 ± 0.38 kg/m3; in data set [2] (333.15 K, x1 = 1), 835.66 ± 0.39 kg/m3; in data set [2] (343.15 K, x1 = 1) it was 824.71 ± 0.41 kg/m3.
